# Experimental data reported in US11485742B2, “2-azaspiro[3.4]octane derivatives as M4 agonists” (NOVARTIS AG, priority 2019, dated 2022).
# How the values were obtained:
# [1] = biological target: T1, human cloned CHRM3 receptor (Homo sapiens, UniProt P20309); experiment: CHRM3 Ca++ Flux Assay (M3_CHO cells, agonist mode); assay type: cell-based; conditions: for M3 FDSS PA % / Emax: Percent Activity (PA) measured to EC100 of Carbachol; for EC50: agonist mode, geometric mean if tested more than once, read-out: M3 FDSS EC50; for Emax: read-out: M3 FDSS PA %
# T1 construct: expressed in transfected cells; host or cells: CHO-K1 (M3_CHO)
# T1 sequence (P20309 whole entry): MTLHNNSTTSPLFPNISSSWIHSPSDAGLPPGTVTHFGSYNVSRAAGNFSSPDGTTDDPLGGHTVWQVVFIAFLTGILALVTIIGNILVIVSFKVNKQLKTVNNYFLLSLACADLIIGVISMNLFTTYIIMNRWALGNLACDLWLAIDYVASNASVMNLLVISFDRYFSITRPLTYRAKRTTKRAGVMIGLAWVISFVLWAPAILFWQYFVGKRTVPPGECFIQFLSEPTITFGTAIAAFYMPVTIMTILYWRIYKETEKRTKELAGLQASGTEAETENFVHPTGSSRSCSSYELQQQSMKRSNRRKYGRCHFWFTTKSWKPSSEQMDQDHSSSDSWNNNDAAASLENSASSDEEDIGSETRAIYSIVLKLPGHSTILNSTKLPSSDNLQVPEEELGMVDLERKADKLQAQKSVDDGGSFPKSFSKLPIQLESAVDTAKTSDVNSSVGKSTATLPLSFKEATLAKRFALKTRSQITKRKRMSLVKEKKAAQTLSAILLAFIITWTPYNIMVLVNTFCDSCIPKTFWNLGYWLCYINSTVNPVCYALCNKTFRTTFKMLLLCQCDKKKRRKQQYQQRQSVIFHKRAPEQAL
# Description: (§1) The above examples were characterized by measuring the intracellular mobilization of Ca^++ ions caused by signaling events mediated by the receptor. The Intra-cellular Calcium flux levels were captured by the highly sensitive Ca^++ indicator, Calcium Assay Kit (BD Biosciences; Catalog Number 640178. The fluorescent activity from all receptors were monitored by the fluorescent imager, FDSS 7000EX (Hamamatsu) over a span of 3 minutes. The change in Calcium flux was readily captured upon activation with the muscarinic orthosteric agonist, Carbachol.
# CHO-K1 cells stably expressing the human cloned CHRM3 receptor (M3_CHO cells) were grown and maintained in a monolayer culture with F12/HAM (Life Technologies) supplemented with 10% Fetal Bovine Serum, IX Pen-Strep, and 0.4 mg/mL Geneticin in a humidified atmosphere (5% CO2) at 37° C. The cultures were grown to 80-90% confluency in T150 flasks (Corning) and washed with 1×DPBS and lifted with 0.05% Trypsin (Life Technologies). The cells were then spun (1K rpm, 3 minutes) and frozen using Recovery Cell Culture Freezing Media (Gibco Technologies). Cells were stored in liquid nitrogen and thawed a day before the assay. A similar procedure was used for cells stably expressing the human cloned CHRM5 receptor (M5_CHO).
# Prior to the day of the assay, stable M3_CHO or M5_CHO cells were thawed and plated on Greiner 384 well black TC treated plates at 12K cells/well in F12/DMEM supplemented with 10% FBS (Hyclone) and kept overnight in a humidified atmosphere (5% CO2) at 37° C. The next day, cells were loaded with Ca^++ dye (BD Biosciences) using Loading Buffer (HBSS +Ca/+Mg, 20 mM HEPES, 2.5 mM Probenecid) and placed back in cell incubator for a minimum of 1 hour. After incubation, the dye was replaced with Assay Buffer (HBSS −Ca/−Mg, 20 mM HEPES, 2.5 mM Probenecid) and kept at room temperature in the dark before running on cell imager. The FDSS 7000EX (Hamamatsu) was used to acquire Ca^+− traces from cells treated with 11 point dose response of compounds in triplicate in order to generate dose response curves in agonist mode. All compounds were serially diluted in DMSO then prepared in Assay Buffer for Ca^++ flux studies. The dose response curves were generated from the average of triplicate wells obtained from each data point and used a non-linear regression of four parameter dose response algorithm. The Percent Activity (PA) was measured to EC100 of Carbachol.
# (§2) If an Example was tested more than once in an assay, then the values below represent the geometric mean of the results from each independent experiment.
# [2] = biological target: T2, human cloned CHRM4 receptor (Homo sapiens, UniProt P08173); experiment: CHRM4 Ca++ Flux Assay (M4_CHO cells, agonist mode); assay type: cell-based; conditions: for M4 FDSS PA % / Emax: Percent Activity (PA); for EC50: geometric mean if tested more than once, read-out: M4 FDSS EC50; for Emax: read-out: M4 FDSS PA %
# T2 construct: expressed in transfected cells; host or cells: CHO-K1 (M4_CHO)
# T2 sequence (P08173 1-479): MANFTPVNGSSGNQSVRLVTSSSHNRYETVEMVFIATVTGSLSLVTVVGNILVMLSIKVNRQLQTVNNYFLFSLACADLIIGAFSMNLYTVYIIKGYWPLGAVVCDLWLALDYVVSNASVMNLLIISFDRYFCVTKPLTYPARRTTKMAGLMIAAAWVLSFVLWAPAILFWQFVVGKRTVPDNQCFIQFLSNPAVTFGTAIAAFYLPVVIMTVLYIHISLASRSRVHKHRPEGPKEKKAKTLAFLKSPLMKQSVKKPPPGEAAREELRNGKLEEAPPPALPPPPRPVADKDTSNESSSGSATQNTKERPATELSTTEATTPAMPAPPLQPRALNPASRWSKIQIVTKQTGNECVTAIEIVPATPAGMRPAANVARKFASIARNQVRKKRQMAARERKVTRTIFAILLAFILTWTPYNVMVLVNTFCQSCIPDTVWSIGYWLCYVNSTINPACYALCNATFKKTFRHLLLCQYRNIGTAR
# Description: as §1
# CHO-K1 cells stably expressing the human cloned CHRM4 receptor (M4_CHO cells) were grown and maintained in a monolayer culture with F12/HAM (Life Technologies) supplemented with 10% Fetal Bovine Serum, 1X Pen-Strep, and 0.4 mg/mL Geneticin in a humidified atmosphere (5% CO2) at 37° C. The cultures were grown to 80-90% confluency in T150 flasks (Corning) and washed with 1×DPBS then lifted with 0.05% Trypsin (Life Technologies). The cells were harvested in growth media then spun (1K rpm, 3 minutes) and cryopreserved using Recovery Cell Culture Freezing Media (Gibco Technologies). Cells were stored in liquid nitrogen and thawed a day before the assay.
# Prior to the day of the assay, stable M4_CHO cells were thawed and plated on 384 well black walled clear bottom TC treated plates (Greiner Cat #781091) at 12K cells/well using F12/HAM Media supplemented with 10% FBS (Life Technologies) and kept overnight in a humidified atmosphere (5% CO2) at 37° C. The next day, cells were loaded with 20 μL Ca^++ dye (BD Biosciences) using Loading Buffer (HBSS +Ca/+Mg, 20 mM HEPES, 2.5 mM Probenecid) and placed back in cell incubator for a minimum of 1 hour. After incubation, the dye was replaced with 45 μL Assay Buffer (HBSS −Ca/−Mg, 20 mM HEPES, 2.5 mM Probenecid) supplemented with 20 μM ATP (Sigma Aldrich) and kept at room temperature in the dark for 60 minutes before running on a cell imager. The FDSS 7000EX (Hamamatsu) was used to capture Ca^++ traces for a span of 3 minutes from cells treated with 11 point dose of compound in triplicate in order to generate dose response curves in agonist mode. All compounds were serially diluted in DMSO then prepared in Assay Buffer for Ca^++ flux studies. The dose response curves were generated from the average of triplicate wells obtained from each data point and used a non-linear regression of four parameter dose response algorithm. The Percent Activity (PA) was measured to EC100 of Carbachol.
# as §2
M3 FDSS PA % [1],EC50 [1],M4 FDSS PA % [2],EC50 [2],Emax [1],Emax [2],SMILES
,> 25 µM,,128 nM,0%,46%,"COCCOc1ccc(F)cc1C1CCN([C@@H]2COC3(C2)CN(c2ncns2)C3)CC1 [Example 5D, (S)-7-(4-(5-fluoro-2-(2-methoxyethoxy)phenyl)piperidin-1-yl)-2-(1,2,4-thiadiazol-5-yl)-5-oxa-2-azaspiro[3.4]octane]"
,> 25 µM,,20 nM,0%,71%,"Fc1ccc(OC[C@@H]2CCOC2)c(C2CCN([C@@H]3COC4(C3)CN(c3nncs3)C4)CC2)c1 [Example 5I, (S)-7-(4-(5-fluoro-2-(((R)-tetrahydrofuran-3-yl)methoxy)phenyl)piperidin-1-yl)-2-(1,3,4-thiadiazol-2-yl)-5-oxa-2-azaspiro[3.4]octane]"
,> 25 µM,,15 nM,0%,99%,"Fc1ccc(O[C@@H]2CCOC2)c(C2CCN([C@@H]3COC4(C3)CN(c3nncs3)C4)CC2)c1 [Example 5H, (S)-7-(4-(5-fluoro-2-(((R)-tetrahydrofuran-3-yl)oxy)phenyl)piperidin-1-yl)-2-(1,3,4-thiadiazol-2-yl)-5-oxa-2-azaspiro[3.4]octane]"

# Second part, the compound before the results:
SMILES,M3 FDSS PA % [1],EC50 [1],M4 FDSS PA % [2],EC50 [2],Emax [1],Emax [2]
"CC1(C)C[C@@H](Oc2ccc(F)cc2C2CCN([C@@H]3COC4(C3)CN(c3nnco3)C4)CC2)CO1 (single isomer, unassigned) [Example 2N, (S)-7-(4-(2-(((R)-5,5-dimethyltetrahydrofuran-3-yl)oxy)-5-fluorophenyl)piperidin-1-yl)-2-(1,3,4-oxadiazol-2-yl)-5-oxa-2-azaspiro[3.4]octane or (S)-7-(4-(2-(((S)-5,5-dimethyltetrahydrofuran-3-yl)oxy)-5-fluorophenyl)piperidin-1-yl)-2-(1,3,4-oxadiazol-2-yl)-5-oxa-2-azaspiro[3.4]octane]",0%,> 25 µM,65%,289 nM,,
"O[C@H]1CC[C@@H](c2ccc(F)cc2C2CCN([C@@H]3COC4(C3)CN(c3nnco3)C4)CC2)CC1 (single isomer, unassigned) [Example 3I, (1R,4s)-4-(2-(1-((S)-2-(1,3,4-oxadiazol-2-yl)-5-oxa-2-azaspiro[3.4]octan-7-yl)piperidin-4-yl)-4-fluorophenyl)cyclohexan-1-ol or (1S,4r)-4-(2-(1-((S)-2-(1,3,4-oxadiazol-2-yl)-5-oxa-2-azaspiro[3.4]octan-7-yl)piperidin-4-yl)-4-fluorophenyl)cyclohexan-1-ol]",0%,> 25 µM,91.2%,38 nM,,
"c1ccc(C2CCN([C@@H]3COC4(C3)CN(c3ncco3)C4)CC2)c(-c2cncnc2)c1 [Example 4R, (S)-2-(oxazol-2-yl)-7-(4-(2-(pyrimidin-5-yl)phenyl)piperidin-1-yl)-5-oxa-2-azaspiro[3.4]octane]",,> 25 µM,,3 nM,0%,70%
"Fc1cc(OCC2(F)COC2)c(C2CCN([C@@H]3COC4(C3)CN(c3ncco3)C4)CC2)cc1F [Example 4P, (S)-7-(4-(4,5-difluoro-2-((3-fluorooxetan-3-yl)methoxy)phenyl)piperidin-1-yl)-2-(oxazol-2-yl)-5-oxa-2-azaspiro[3.4]octane]",,> 25 µM,,5 nM,0%,63%
"Fc1ccc([C@H]2CCOC2)c(C2CCN([C@@H]3COC4(C3)CN(c3nnco3)C4)CC2)c1 (single isomer, unassigned) [Example 3E, (S)-7-(4-(5-fluoro-2-((R)-tetrahydrofuran-3-yl)phenyl)piperidin-1-yl)-2-(1,3,4-oxadiazol-2-yl)-5-oxa-2-azaspiro[3.4]octane or (S)-7-(4-(5-fluoro-2-((S)-tetrahydrofuran-3-yl)phenyl)piperidin-1-yl)-2-(1,3,4-oxadiazol-2-yl)-5-oxa-2-azaspiro[3.4]octane]",0%,> 25 µM,86%,28 nM,,
"Fc1cc(F)c(O[C@@H]2CCOC2)c(C2CCN([C@@H]3COC4(C3)CN(c3nnco3)C4)CC2)c1 [Example 2CC, (S)-7-(4-(3,5-difluoro-2-(((R)-tetrahydrofuran-3-yl)oxy)phenyl)piperidin-1-yl)-2-(1,3,4-oxadiazol-2-yl)-5-oxa-2-azaspiro[3.4]octane]",,> 25 µM,,168 nM,0%,79%
"CC(C)(O)[C@H]1C[C@@H](Oc2ccc(F)cc2C2CCN([C@@H]3COC4(C3)CN(c3ncco3)C4)CC2)C1 (single isomer, unassigned) [Example 4T, 2-((1R,3s)-3-(4-fluoro-2-(1-((S)-2-(oxazol-2-yl)-5-oxa-2-azaspiro[3.4]octan-7-yl)piperidin-4-yl)phenoxy)cyclobutyl)propan-2-ol or 2-((1S,3r)-3-(4-fluoro-2-(1-((S)-2-(oxazol-2-yl)-5-oxa-2-azaspiro[3.4]octan-7-yl)piperidin-4-yl)phenoxy)cyclobutyl)propan-2-ol]",0%,> 25 µM,63%,25 nM,,
"Fc1ccc(OC[C@@H]2CCOC2)c(C2CCN([C@@H]3COC4(C3)CN(c3nnco3)C4)CC2)c1 [Example 1B, (S)-7-(4-(5-fluoro-2-(((R)-tetrahydrofuran-3-yl)methoxy)phenyl)piperidin-1-yl)-2-(1,3,4-oxadiazol-2-yl)-5-oxa-2-azaspiro[3.4]octane]",,> 25 µM,,10 nM,0%,84%
